Measured values published in PubChem BioAssay AID1259411 (Chemical Carcinogenesis Research Information System (CCRIS), 2018).
Activity calls are given as the source filed them. The rule behind the calls is not given here.

System: rodent carcinogenicity bioassays, tumor incidence
Assay: CCRIS carcinogenicity studies
Details: Dose: 0
Method in brief: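 Archive of carcinogenicity, mutagenicity, tumor promotion and tumor inhibition results drawn from journals, NCI reports and other sources, expert-reviewed; covers 1985-2011 and is no longer updated.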

## CCCC1O[C@@H]2C[C@H]3[C@@H]4CCC5=CC(=O)C=C[C@]5(C)[C@H]4[C@@H](O)C[C@]3(C)[C@]2(C(=O)CO)O1 (stereo partly drawn)
Species: RAT, Strain/Sex: SPRAGUE-DAWLEY/MALE, Route: ORAL, 5 UG/ML IN DRINKING WATER FOR AN AVERAGE DAILY DOSE OF 46.6 UG/KG FOR 104 WK (STUDY DURATION: 104 WK), Tumor Site: Type of Lesion: LIVER: HEPATOCELLULAR ADENOMA OR CARCINOMA
  carcinogen call: active; positive

## Nc1ccc(Cl)cc1
Species: MOUSE, Strain/Sex: B6C3F1/F, Route: GAVAGE, 3, 10, 30 MG/KG IN ACIDIFIED WATER 5D/WK FOR 103 WK (STUDY DURATION: 104 WK, 3, 10, 30 MG/KG IN ACIDIFIED WATER 5D/WK FOR 103 WK (STUDY DURATION: 104 WK
  carcinogen call: inactive; negative
Species: MOUSE, Strain/Sex: B6C3F1/FEMALE, Route: ORAL, 2500, 5000 PPM IN DIET FOR 78 WK (STUDY DURATION: 91 WK), 2500, 5000 PPM IN DIET FOR 78 WK (STUDY DURATION: 91 WK), Tumor Site: Type of Lesion: SPLEEN: HEMANGIOMA AND HEMANGIOSARCOMA, LIVER: HEMANGIOSARCOMA, MULTIPLE ORGANS: HEMANGIOSARCOMA, Tumor Site: Type of Lesion: SPLEEN: HEMANGIOMA AND HEMANGIOSARCOMA, LIVER: HEMANGIOSARCOMA, MULTIPLE ORGANS: HEMANGIOSARCOMA
  carcinogen call: equivocal
Species: MOUSE, Strain/Sex: B6C3F1/MALE, Route: GAVAGE, 3, 10, 30 MG/KG IN ACIDIFIED WATER 5D/WK FOR 103 WK (STUDY DURATION: 104 WK), 3, 10, 30 MG/KG IN ACIDIFIED WATER 5D/WK FOR 103 WK (STUDY DURATION: 104 WK), Tumor Site: Type of Lesion: LIVER: HEPATOCELLULAR CARCINOMA, LIVER: HEPATOCELLULAR ADENOMA OR CARCINOMA, CIRCULATORY SYSTEM: HEMANGIOSARCOMA, Tumor Site: Type of Lesion: LIVER: HEPATOCELLULAR CARCINOMA, LIVER: HEPATOCELLULAR ADENOMA OR CARCINOMA, CIRCULATORY SYSTEM: HEMANGIOSARCOMA
  carcinogen call: active; positive
Species: MOUSE, Strain/Sex: B6C3F1/MALE, Route: ORAL, 2500, 5000 PPM IN DIET FOR 78 WK (STUDY DURATION: 91 WK), 2500, 5000 PPM IN DIET FOR 78 WK (STUDY DURATION: 91 WK), Tumor Site: Type of Lesion: SPLEEN: HEMANGIOSARCOMA, LIVER: HEMANGIOMA AND HEMANGIOSARCOMA, KIDNEY: HEMANGIOSARCOMA, MULTIPLE ORGANS: HEMANGIOSARCOM, Tumor Site: Type of Lesion: SPLEEN: HEMANGIOSARCOMA, LIVER: HEMANGIOMA AND HEMANGIOSARCOMA, KIDNEY: HEMANGIOSARCOMA, MULTIPLE ORGANS: HEMANGIOSARCOM
  carcinogen call: equivocal
Species: RAT, Strain/Sex: F344/FEMALE, Route: GAVAGE, 2, 6, 18 MG/KG IN ACIDIFIED WATER 5D/WK FOR 103 WK (STUDY DURATION: 104 WK), 2, 6, 18 MG/KG IN ACIDIFIED WATER 5D/WK FOR 103 WK (STUDY DURATION: 104 WK), Tumor Site: Type of Lesion: SPLEEN: SARCOMA, ADRENAL GLAND: PHEOCHROMOCYTOMA
  carcinogen call: equivocal
Species: RAT, Strain/Sex: F344/FEMALE, Route: ORAL, 250, 500 PPM IN DIET FOR 78 WK (STUDY DURATION: 102 WK), 250, 500 PPM IN DIET FOR 78 WK (STUDY DURATION: 102 WK)
  carcinogen call: inactive; negative
Species: RAT, Strain/Sex: F344/MALE, Route: GAVAGE, 2, 6, 18 MG/KG IN ACIDIFIED WATER 5D/WK FOR 103 WK (STUDY DURATION: 104 WK), 2, 6, 18 MG/KG IN ACIDIFIED WATER 5D/WK FOR 103 WK (STUDY DURATION: 104 WK), Tumor Site: Type of Lesion: ADRENAL MEDULLA: PHEOCHROMOCYTOMA, ADRENAL MEDULLA: PHEOCHROMOCYTOMA OR MALIGNANT PHEOCHROMOCYTOMA, SPLEEN: FIBROSARCOMA, Tumor Site: Type of Lesion: ADRENAL MEDULLA: PHEOCHROMOCYTOMA, ADRENAL MEDULLA: PHEOCHROMOCYTOMA OR MALIGNANT PHEOCHROMOCYTOMA, SPLEEN: FIBROSARCOMA
  carcinogen call: active; positive
Species: RAT, Strain/Sex: F344/MALE, Route: ORAL, 250, 500 PPM IN DIET FOR 78 WK (STUDY DURATION: 102 WK), 250, 500 PPM IN DIET FOR 78 WK (STUDY DURATION: 102 WK), Tumor Site: Type of Lesion: SPLEEN OR PERITONEUM: SARCOMA
  carcinogen call: active; positive
Species: RAT, Strain/Sex: F344/MALE, Route: ORAL, 250, 500 PPM IN DIET FOR 78 WK (STUDY DURATION: 102 WK), 250, 500 PPM IN DIET FOR 78 WK (STUDY DURATION: 102 WK), Tumor Site: Type of Lesion: SPLEEN: FIBROMA AND SARCOMA
  carcinogen call: equivocal

## Clc1cccc(-c2cccc(Cl)c2)c1
Species: RAT, Strain/Sex: WISTAR/MALE, Route: ORAL, 100 PPM IN DIET FOR DURATION OF STUDY (STUDY DURATION: 832 D)
  carcinogen call: inactive; negative

## CC(C)(c1ccc(OCC2CO2)cc1)c1ccc(OCC2CO2)cc1 (stereo not drawn)
Species: MOUSE, Strain/Sex: CF1/FEMALE, Route: DERMAL, 1, 10% IN ACETONE 2D/WK FOR 2 YR (STUDY DURATION: 2 YR), 1, 10% IN ACETONE 2D/WK FOR 2 YR (STUDY DURATION: 2 YR)
  carcinogen call: inactive; negative
Species: MOUSE, Strain/Sex: CF1/MALE, Route: DERMAL, 1, 10% IN ACETONE 2D/WK FOR 2 YR (STUDY DURATION: 2 YR), 1, 10% IN ACETONE 2D/WK FOR 2 YR (STUDY DURATION: 2 YR)
  carcinogen call: inactive; negative
Species: MOUSE, Strain/Sex: CF-1/FEMALE, Route: DERMAL, 1, 10% IN ACETONE (TOTAL DOSE 0.2 ML) 2/WK APPLIED TO DORSAL SKIN FOR DURATION OF STUDY (STUDY DURATION: 2 YR), 1, 10% IN ACETONE (TOTAL DOSE 0.2 ML) 2/WK APPLIED TO DORSAL SKIN FOR DURATION OF STUDY (STUDY DURATION: 2 YR)
  carcinogen call: inactive; negative
Species: MOUSE, Strain/Sex: CF-1/MALE, Route: DERMAL, 1, 10% IN ACETONE (TOTAL DOSE 0.2 ML) 2/WK APPLIED TO DORSAL SKIN FOR DURATION OF STUDY (STUDY DURATION: 2 YR), 1, 10% IN ACETONE (TOTAL DOSE 0.2 ML) 2/WK APPLIED TO DORSAL SKIN FOR DURATION OF STUDY (STUDY DURATION: 2 YR)
  carcinogen call: inactive; negative

## OC1C=Cc2c(cc3ccc4cccc5c6ccccc6c2c3c45)C1O (stereo not drawn)
Species: MOUSE, Strain/Sex: SWISS/FEMALE, Route: DERMAL, 1, 4 NMOL IN 100 µL ACETONE 2/WK FOR 40 WK (STUDY DURATION: 48 WK), 1, 4 NMOL IN 100 µL ACETONE 2/WK FOR 40 WK (STUDY DURATION: 48 WK), Tumor Site: Type of Lesion: SKIN: TUMORS
  carcinogen call: active; positive

## C=CC(=O)OC(C)COCC(C)OCC(C)OC(=O)C=C (stereo not drawn)
Species: MOUSE, Strain/Sex: TG.AC/FEMALE, Route: DERMAL, 1, 5, 10 UMOL IN 200 µL ACETONE 3/WK FOR 20 WK (STUDY DURATION: 20 WK), 1, 5, 10 UMOL IN 200 µL ACETONE 3/WK FOR 20 WK (STUDY DURATION: 20 WK), Tumor Site: Type of Lesion: SKIN: PAPILLOMA
  carcinogen call: active; positive

## N#[N+]c1ccc(CO)cc1
Species: MOUSE, Strain/Sex: SWISS/FEMALE, Route: SUBCUTANEOUS, 50 UG/G BW IN 0.01 ML 0.9% SALINE 1/WK FOR 26 WK (STUDY DURATION: 140 WK), Tumor Site: Type of Lesion: SUBCUTIS: TUMOR, SKIN: TUMOR
  carcinogen call: active; positive
Species: MOUSE, Strain/Sex: SWISS/MALE, Route: SUBCUTANEOUS, 50 UG/G BW IN 0.01 ML 0.9% SALINE 1/WK FOR 26 WK (STUDY DURATION: 140 WK), Tumor Site: Type of Lesion: SUBCUTIS: TUMOR, SKIN: TUMOR
  carcinogen call: active; positive

## CCCCOC(=O)[C@@H](C)Oc1ccc(Oc2ccc(C(F)(F)F)cn2)cc1
Species: Hamster, Strain/Sex: Syrian golden/Female (51/Group), Route: Oral, 200, 750, 3000 ppm of 91.6% fluazifop-o-butyl (0; 10.6; 40; 158 mg/kg/day) in diet for 81-83 wks, study duration 83 w, 200, 750, 3000 ppm of 91.6% fluazifop-o-butyl (0; 10.6; 40; 158 mg/kg/day) in diet for 81-83 wks, study duration 83 w
  carcinogen call: inactive; negative
Species: Hamster, Strain/Sex: Syrian golden/Male (51/Group), Route: Oral, 200, 750, 3000 ppm of 91.6% fluazifop-o-butyl (0; 11.1; 42; 174 mg/kg/day) in diet for 81-83 wks, study duration 83 w, 200, 750, 3000 ppm of 91.6% fluazifop-o-butyl (0; 11.1; 42; 174 mg/kg/day) in diet for 81-83 wks, study duration 83 w
  carcinogen call: inactive; negative
Species: Rat, Strain/Sex: Wistar/Female (60/Group), Route: Oral, 2, 10, 80, 250 ppm of 94.8% fluazifop-o-butyl (0; 0.11; 0.53; 4.3; 13.4 mg/kg/day) in diet for 2 yrs, study duration, 2, 10, 80, 250 ppm of 94.8% fluazifop-o-butyl (0; 0.11; 0.53; 4.3; 13.4 mg/kg/day) in diet for 2 yrs, study duration
  carcinogen call: inactive; negative
Species: Rat, Strain/Sex: Wistar/Male (60/Group), Route: Oral, 2, 10, 80, 250 ppm of 94.8% fluazifop-o-butyl (0; 0.08; 0.41; 3.3; 10.2 mg/kg/day) in diet for 2 yrs, study duration, 2, 10, 80, 250 ppm of 94.8% fluazifop-o-butyl (0; 0.08; 0.41; 3.3; 10.2 mg/kg/day) in diet for 2 yrs, study duration
  carcinogen call: inactive; negative
